In patent US11015179B2, “Peptide having anti-viral effect and composition containing same” (priority 2015, dated 2021):

How the values were obtained:
JFH-1 cells = assay: Intracellular ROS production (DCF-DA) in JFH-1 cells; assay type: cell-based, human; conditions: for ROS production: 2 hours, PEP1 0.001-10 μM, NAC, PDTC 100 μM, vitamin E 10 μM, vs vehicle
Method: One day after 5×10^4 (cells/well) cells of the JFH-1 cell line were seeded into a 24-well plate, intracellular ROS production was measured according to various experimental materials. Measurement of intracellular activity was carried out by staining the cells with dichlorodihydrofluoresein diacetate (DCF-DA; Invitrogen), and fluorescence measurement of ROS production was carried out at […] using Infinte M2000 Tecan (Tecan Trading AG, Switzerland). All fluorescent units were expressed as arbitrary units, and as a positive control group, hydrogen peroxide (H2O2, 2 mM) was used. ROS measurement for the Huh7.5 cells was also carried out by the same procedure as described above.
As a control group, a human HCC cell line, and Huh7.5 and JFH-1 cell lines were treated with known representative antioxidants such as NAC (2 Mm), PDTC (100 μM), and vitamin E (10 μM) and then compared.
The inventors inhibited the interaction with HSP90 by two methods: a use of antibodies against […] and antibodies against HSP90 or a use of an inhibitor occupying a catalytic position (ATP-binding pocket in the N-terminal of HSP90).

HIV-1 [1] = conditions: characteristics of control anti-HIV drugs stated as well known; cited from earlier work
HCV = assay: Quantitative PCR of HCV NS2 transcript in JFH-1 cells; assay type: cell-based, Hepatitis C virus (HCV2a JFH-1); conditions: 48 hours, vs vehicle, PEP1 until 10 μM, NAC 20 mM, PDTC 100 μM, vitamin E 10 μM
Method: A cell line used in the example relating to the HCV antiviral effect of PEP1 according to an aspect of the present invention, such as, human hepatocellular carcinoma (Huh7.5) was purchased from the American Type Culture Collection (ATCC; Manassas, Va., USA), and a JFH-1 cell line was constructed using HCV2a JFH-1 clones provided from Dr. Wakita (Tokyo Metropolitan Institute for Neuroscience, Tokyo, Japan) in the Huh7.5 cell line. All of the cell lines were cultured in a Dulbecco's modified Eagle's medium (DMEM) containing 10% FBS and 1% antibiotics.
A HCV RNA level was detected though quantitative PCR using primers for a NS2 gene. To measure the level of HCV RNA in the supernatant of cell culture, RNA was extracted from 100 μl of the cell culture using a QIAamp Viral RNA Mini kit (Qiagen). The extracted RNA was used in cDNA synthesis using a transcript first strand cDNA synthesis supermix kit (Roche Applied Science). PCR was carried out using a 1×SYBR Green mix (Qiagen). For real-time PCR, an NS2 forward primer 5′-[…]-3′ (SEQ ID NO: 3) and a reverse primer 5′-[…]-3′ (SEQ ID NO: 4) were purchased from Bioneer Co. For quantitative PCR, a 7900HT Fast real-time PCR system (Applied Biosystems, Foster City, Calif., USA) was used.
According to the methods described in the experiments and the analysis methods, to investigate whether PEP1 inhibits the replication of one HCV RNA such as NS2, the transcript of NS2 was measured.

[2] = tested on: HSP90 (extracellular HSP90, eHSP90); assay: Extracellular HSP90 detection by ELISA in JFH-1 culture supernatant; assay type: cell-based, human; conditions: JFH-1 cells, PDTC 100 μM, 2 hours, vs control
Method: The Huh7.5 and JFH-1 cell lines were treated with an oxidant (H2O2, 2 mM) and an antioxidant, PDTC (100 μM), for two hours. HSP90 (extracellular HSP90, eHSP90) in the supernatant of a culture was detected by ELISA (R&D Systems, Minneapolis, Minn., USA) according to the manufacturer's instructions.

p38, JNK and ERK = assay: Immunoblotting of MAPK signaling factors in JFH-1 cells; assay type: cell-based, human; conditions: 2 hours, vitamin E 10 μM
Method: Proteins were acquired from cells using a lysis solution (Cell Signaling Technology, Danvers, Mass., USA) containing a proteinase inhibitors cocktail (Roche, Basel, Switzerland) and a phosphatase inhibitor (Roche). To remove debris, which remained after cell lysis, the cells were centrifuged for 10 minutes at 4° C. 50 μg of the proteins were analyzed through 12% sodium dodecyl sulfate-polyacrylamide gel electrophoresis (SDS-PAGE), and then transferred to a polyvinylidene difluoride membrane (PVDF; Millipore, Bedford, Mass., USA). The transferred membrane was developed using an ImageQuant™ LAS 4000 mini biomolecular imager (GE Healthcare Bio-Sciences AB, Sweden), after antibodies against HSP90, p38, p-p38 (Thr180/Tyr182), JNK, p-JNK (Thr183/Tyr185), ERK, p-ERK (Thr202/Tyr204), and zinc-copper containing enzyme SOD (CuZn-SOD) and manganese-SOD (Mn-SOD) as superoxide dismutase oxidases (SODs), and GAPDH (all of them were purchased from Cell Signaling Technology and Santa Cruz Biotechnology) were attached to the membrane and then visualized by a SuperSignal West Pico chemiluminescence substrate (Pierce, Rockford, USA). β-actin was used for normalization using a Multi Gauge V 3.0 (Fuji Film, Japan), and quantitative analysis was carried out by densitometry. […]

HIV-1 [3] = conditions: MT-4 cells
Method: The MT-4 cells (4×10^5 cells) were infected with HIV-1 (4×10^5 50% cell culture infective dose (CCID50)) for one hour. […] After two days of incubation, images of the MT-4 cells expressing eGFP were obtained using a fluorescence microscope before harvesting the cells. To remove cell debris, the collected supernatant was subjected to centrifugation at 13,000 rpm for 3 minutes, and to measure an extracellular viral amount, p24 ELISA or RNA extraction was performed for a reverse transcription-quantitative polymerase chain reaction (RT-qPCR). Meanwhile, the cell pellets were washed with D-PBS twice, and used for a cell viability assay. […] HIV-1 replication was analyzed by p24 ELISA, and eGFP was monitored using a fluorescent microscope.
To measure HIV-1 virus titers, HIV-1 p24 antigen capture ELISA (p24 ELISA, ABL) and RT-qPCT assay were performed according to the manufacturer's instructions. HIV-1 RNA genomes were purified from the cell culture supernatants and pellets using a QIAamp Ultrasens Virus kit (Qiagen, Hilden, Germany) according to the manufacturer's instructions. The HIV-1 RNA levels were quantified by RT-qPCR using a primer pair specific to gag of HIV-1. Glyceraldehyde phosphate dehydrogenase (GAPDH) was used as a reference gene for normalization. […]

[4] = tested on: HIV-1-infected MT-4 cells; assay: Cell protective effect from HIV-1-induced cell death in MT-4 cells; assay type: cell-based, human; conditions: 5 days
Method: MT-4, 1G5 or ACH-2 cells were seeded in a 96-well microplate at a density of 1×10^4 cells/well, and incubated with increasing concentrations of PEP1 for 5 days. Cell viability was determined by colorimetry using a CellTiter96 Aqueous One Solution assay kit (Promega, Wis.) according to the manufacturer's instructions. To assess the cell protective effect of PEP1 from HIV-1-induced cell death, MT-4 cells (1×10^4) were infected with the HIV-1 virus (4×10^5 CCID50) for 5 days with or without PEP1, and subjected to a cell viability assay.
It has been known that apoptosis of HIV-infected cells occurs by an intracellular cell death mechanism.

[5] = tested on: HIV-1 Tat transactivation; assay: HIV-LTR-luciferase assay in 1G5 cells transfected with Tat plasmids; assay type: cell-based; conditions: four days
Method: An HIV-1 transactivation protein (Tat) is a regulatory protein dramatically enhancing HIV-1 transcription through the interaction with the tat-transcriptional active region (TAR). […] In the present invention, as a Jurkat-derived cell line, 1G5 containing a stably-inserted HIV-LTR-luciferase construct was used.
The 1G5 cells were transfected with Tat plasmids. […] Four days after the infection, the transactivation of HIV-LTR was analyzed through a luciferase assay.

NF-κB = NF-κB dual-luciferase assay in MT-4 cells; assay type: cell-based, human; conditions: 24 hours
From the text: NF-κB triggers HIV transcription by interacting with an NF-κB-binding site in HIV-LTR, and increases the activation of TAT-mediated LTR […]. In addition, Tat can directly activate NF-κB. Recently, there have been studies showing that eHSP90 can regulate various intracellular signaling pathways, including the NF-κB pathway.

HIV-1 [6] = conditions: ACH-2 cells, RT-qPCR, stepwise increasing concentrations
Method: That is, ACH-2 cells, that is, cells latently-infected with HIV-1, were stimulated with PMA (50 nM) to induce reactivation of HIV-1 for 1 hour. […] A production level of viral particles in the supernatant was determined by p24 ELISA.
The levels of viral genomic RNA of the produced viral particles were determined by RT-qPCR.

## C=CCNC1=C2C[C@@H](C)C[C@H](OC)[C@H](O)[C@@H](C)/C=C(\C)[C@H](OC(N)=O)[C@@H](OC)/C=C\C=C(/C)C(=O)NC(=CC1=O)C2=O [17AAG, 17-N-Allylamino-17-demethoxy geldanamycin]
JFH-1 cells; 17AAG 1 μM, KNK 10 μM
  Change in ROS caused by HSP inhibitor: the ROS inhibitory effect was exhibited

## CC(C)c1nc(CN(C)C(=O)N[C@H](C(=O)N[C@@H](Cc2ccccc2)C[C@H](O)[C@H](Cc2ccccc2)NC(=O)OCc2cncs2)C(C)C)cs1 [Ritonavir]
HIV-1 [1]
  Time of treatment at which the control drug inhibits HIV proliferation: up to 15 hours

## S=C(S)N1CCCC1 [PDTC, pyrolidine dithiocarbamate]
HCV
  NS2 transcription (HCV RNA replication): do not inhibit the NS2 transcription at all
JFH-1 cells
  ROS production: induced a decrease in ROS production
JFH-1 cells; PDTC
  ROS production in the presence of KNK and 17AAG: inhibits ROS production in the presence of both of KNK and 17AAG
  ROS production with HSP70/HSP90 blocking antibodies: inhibits ROS production regardless of blocking of HSP70 and HSP90
[2]
  eHSP90 level: produced at a lower level than the control group

## vitamin E
HCV
  NS2 transcription (HCV RNA replication): do not inhibit the NS2 transcription at all
JFH-1 cells
  ROS production: induced a decrease in ROS production
p38, JNK and ERK
  ERK activity: increased

## Cc1cn([C@H]2C[C@H](N=[N+]=[N-])[C@@H](CO)O2)c(=O)[nH]c1=O [AZT, 3-azido-3-deoxythymidine]
HIV-1 [3]; fluorescence / immunoblotting
  Inhibition of eGFP expression after anti-HSP90 antibodies: an effect of AZT was not obtained
HIV-1 [3]; p24 ELISA
  Inhibition of HIV-1 production after anti-HSP90 neutralization antibodies: no influence
[4]
  Cell protective effect: considerable cell protective effects in a dose-dependent manner
[5]
  HIV-LTR luciferase activity activated by ectopic expression of Tat: did not inhibit
NF-κB
  NF-κB activity in HIV-1-infected MT-4 cells: medium level of inhibitory effect
NF-κB; MT-4 cells
  Basal NF-κB activity: no significant effect
HIV-1 [6]
  Viral genomic RNA of produced viral particles after PMA: did not change the PMA effect

## CC(=O)N[C@@H](CS)C(=O)O [NAC, N-acetylcysteine]
HCV
  NS2 transcription (HCV RNA replication): do not inhibit the NS2 transcription at all
JFH-1 cells
  ROS production: induced a decrease in ROS production
